Laboratory results published in patent US12630544B2, “Compound, α-synuclein aggregate binder, and use thereof” (NATIONAL INSTITUTES FOR QUANTUM SCIENCE AND TECHNOLOGY, priority 2020, dated 2026).

Key:
α-synuclein lesion = molecular target: T1, α-synuclein lesion (Mus musculus, UniProt O55042); test: In vivo two-photon laser scanning fluorescence microscopy of α-synuclein fibril-inoculated model mouse; conditions: 50 μl DMSO solution containing 0.1% compound, i.p.
T1 construct: from tissue; host or cells: brain of C57/BL/6 mouse inoculated in the striatum with recombinant (E. coli) mouse α-synuclein fibrils; sections or living animal
Experimental: (§1) First, mouse α-synuclein was expressed in and extracted from E. coli as a recombinant protein, and then incubated in vitro to form insoluble α-synuclein aggregates. The α-synuclein aggregates were then inoculated into the striatum of a mouse. […] Note that the inoculation of the α-synuclein aggregates into the striatum of the mouse was carried out in the following manner. First, hair on the head of a 9-week-old C57/BL/6 male mouse which had been anesthetized with 1.5% (v/v) isoflurane was removed, and the scalp was disinfected with isodine, followed by application of xylocaine and incision in the scalp to expose the skull. Then, a hole was drilled in the skull at a position of 0.05 mm posterior to the bregma and 2 mm lateral to the midline, and 3 μl of an α-synuclein fibril solution (mouse α-synuclein fibril (4 mg/ml) in saline) was injected into a position […] ventral to the brain surface with use of a glass pipette. The scalp was then returned and sutured.
A model mouse was anesthetized with 1.5% (v/v) isoflurane 6 or more weeks after inoculation of an α-synuclein fibril solution. Then, a cranial window was placed on the model mouse in accordance with the Seylaz-Tomita method (Tomita et al. J Cereb Blood Flow Metab 25, 858-67, 2005). Two or more weeks after the placement of the cranial window, the mouse was anesthetized with 1.5% (v/v) isoflurane, and then 50 μl of a DMSO solution containing 0.1% BF-227, PBB3, SPAL-T-05, or SPAL-T-06 was intraperitoneally administered to the mouse. Thirty minutes after the administration, the mouse was fixed under a two-photon laser fluorescence microscope, 100 μl of physiological saline containing 5 mM Sulforhodamine 101 was intraperitoneally administered to the mouse, and then intravital two-photon fluorescence imaging was carried out at an excitation wavelength of 900 nm. Detection wavelengths for BF-227, PBB3, SPAL-T-05, and SPAL-T-06 were set at 500 nm to 550 nm, and a detection wavelength for Sulforhodamine 101 was set at 573 nm to 648 nm. In FIG. 4, each arrowhead indicates a blood vessel, and each arrow indicates fluorescence from the compound binding to an α-synuclein lesion.

α-synuclein aggregates = molecular target: T2, α-synuclein aggregates (Mus musculus, UniProt O55042); test: In vivo PET imaging of mouse brain (α-synuclein fibril-inoculated mouse vs physiological saline-injected mouse); conditions: intravenous injection of 18F-labeled compound, 90 minutes scan
T2 construct: from tissue; host or cells: brain of C57/BL/6 mouse inoculated in the striatum with recombinant (E. coli) mouse α-synuclein fibrils; sections or living animal
Experimental: as §1
PET scanning was carried out with use of a micro PET Focus 220 animal scanner (Siemens Medical Solutions), which provided 95 slices each having a thickness of 0.851 mm (center thickness), a […]. Before the scanning, an α-synuclein fibril-inoculated mouse and a physiological saline-injected mouse (control) were each anesthetized with 1.5% (v/v) isoflurane. […]

α-synuclein lesions = molecular target: T3, α-synuclein lesions (Homo sapiens, UniProt P37840); test: In vitro fluorescence microscope measurement of the sections subjected to autoradiography (DLB, MSA); conditions: 30 μM, 50% ethanol, 30 minutes
T3 construct: α-synuclein aggregates formed in the brain of the DLB patient; from tissue; host or cells: post-mortem human brain: amygdala of DLB patient (sections or homogenate); cerebellum of MSA patient
Experimental: The section that had been subjected to the autoradiography was analyzed by fluorescent staining. Specifically, the section and 30 μM SPAL-T-06 were incubated in a 50% ethanol solution at room temperature for 30 minutes. Thereafter, the section was washed with a 50% ethanol solution for 5 minutes and with ultrapure water for 3 minutes. This washing was carried out twice. After the section was mounted in a mounting medium (VECTASHIELD H-1000), an image of an α-synuclein aggregate-enriched area on the section was obtained with use of a fluorescence microscope (DM4000 (excitation wavelength: 391 nm to 437 nm)). An adjacent brain section was also washed with a phosphate buffer solution, and then treated in an autoclave for antigen retrieval. After the section was subjected to immunohistochemical staining with an anti-phosphorylated α-synuclein monoclonal antibody (pS129, abcam, ab59264) (1:1000) and then mounted in a mounting medium (VECTASHIELD H-1000), images were obtained with use of fluorescence microscopes (BZ-X710, KEYENCE (excitation wavelength: 450 nm to 490 nm) and DM4000 (excitation wavelength: 460 nm to 500 nm)).

- detection of / binding to α-synuclein lesions in living mouse brain (two-photon fluorescence) (α-synuclein lesion; excitation 900 nm): bound to α-synuclein lesions
- binding to α-synuclein lesions in DLB and MSA brain sections (fluorescent staining) (α-synuclein lesions): bound to α-synuclein lesions
SMILES: CNc1cnc(C#C/C=C/c2nc3ccc(OCC(O)CF)cc3s2)cn1 (stereo not shown) [SPAL-T-06, (E)-1-fluoro-3-((2-(4-(5-(methylamino)pyrazin-2-yl)but-1-en-3-yn-1-yl)benzo[d]thiazol-6-yl)oxy)propan-2-ol]
- delivery into the brain after intraperitoneal administration (α-synuclein lesion; imaging 30 minutes after administration): delivered into the brain and further into neurons of the living body
- brain-entering property / clearance rate from the brain (PET) (α-synuclein aggregates): adequate brain-entering property or an adequate clearance rate from the brains
